Several values for one entry are separate records, joined by “and”; a condition that tells them apart may be missing. Identical values can stand only once.
Key:
neurofibrillary tangles = test: Gallyas silver staining for neurofibrillary tangles in Tg4510 mice; type: in vivo, mouse; conditions: cortex and hippocampus, vs vehicle
Experimental: Mice were euthanized by cervical dislocation at 5. 5 months followed by decapitation. Brains were immediately removed and divided down the midline into two hemispheres. The right hemisphere was placed into 20 mL of 4% paraformaldehyde (prepared fresh on the day of sacrifice) and stored overnight at 4° C. The following day, the brains were transferred to a tube containing 20 mL TBS (pH 7.4, 20 mM TRIS, 100 mM NaCl) and then stored at 4° C. until processing. Right hemispheres were embedded in paraffin, sectioned at 5 microns, and mounted on positively charged glass slides. The slides were dried overnight in a 60° C. oven and stored at room temperature until stained. The left hemispheres were frozen (within 2 minutes) on dry ice.
The Gallyas staining method was used to detect silver-positive neurofibrillary tangles and dystrophic neurites. Paraffin-embedded thin sections (5 microns) mounted on glass slides were deparaffinized and rehydrated via serial incubation in xylene (two times for 10 minutes each), 100% ethanol (two times for 10 minutes each), 95% MeOH/5% H2O2 (30 minutes), 95% ethanol (two times for 5 minutes each), 80% ethanol (two times for 5 minutes each), 50% ethanol (two times for 5 minutes each), and water (two times for 5 minutes each). […]

[1] = Brain half-life of epothilone D in mice; type: in vivo, mouse; conditions: for half-life: mouse, brain
Excerpt: (§1) To calculate an accurate brain half-life for a long half-life compound, measurements need to be taken for several half lives after a single dose.

[2] = Brain half-life of epothilone D in rats; type: in vivo; conditions: 1 mg/kg, Rat, IV, 1 mpk
Excerpt: as §1

In the case of C/C1=C/C[C@@H](/C(C)=C/c2csc(C)n2)OC(=O)C[C@H](O)C(C)(C)C(=O)[C@H](C)[C@@H](O)[C@@H](C)CCC1 [Epothilone D, epothilone D], the “Gallyas silver staining: neurofibrillary tangles” value (neurofibrillary tangles; 1 mpk IP weekly) was “much lower levels of neurofibrillary tangles than did vehicle-treated mice”, the “Gallyas silver staining: neurofibrillary tangles” value (neurofibrillary tangles; 10 mpk IP weekly) was “trend toward improvement” and the “Half life (brain)” value ([1]; Mouse, IP, 10 mpk, 10 mg/kg) was 37 h and 45 h and 46 h. For the same compound, the half-life ([1]; intravenous, oral, intraperitoneal, mice, multiple routes of administration and dosages, read-out: brain half life, average (converted)) was 46 h, the half-life ([1]; ip, 1 mg/kg, Mouse, IP, 1 mpk, read-out: Half life (brain) (converted)) was 44 h and the half-life ([1]; ip, 10 mg/kg, Mouse, IP, 10 mpk, read-out: Half life (brain) (converted)) was 41 h. The half-life ([1]; iv, 5 mg/kg, Mouse, IV, 5 mpk, read-out: Half life (brain) (converted)) was 61 h, the half-life ([1]; po, 10 mg/kg, Mouse, Oral, 10 mpk, read-out: Half life (brain) (converted)) was 46 h and the half-life [2] was 31 h.
